Measurements reported in patent US20250123282A1, “METHODS FOR EVALUATION AND TREATMENT OF TYROSINE KINASE INHIBITOR (TKI)-RESISTANT ACUTE MYELOID LEUKEMIA” (LOMA LINDA UNIVERSITY, priority 2021, published 2025).

Legend:
Type in all cases: cell-based, human
MV4-11 cells [1] = assay: FACS time course of CD44+pBAD+ and Ki67+CD33+CD44+ populations in TKI-treated MV4-11
Description: (§1) To follow the cell fate of TKI-treated MV4-11 and MOLM-14, culturing of blasts were continued by performing medium change every 2-3 days. […] The BAD protein is a pro-apoptotic member of the BCL-2 gene family, which is involved in initiating apoptosis. Dephosphorylated BAD is pro-apoptotic by binding BCL-2 and inactivating BCL-2, while phosphorylated BAD (pBAD) is anti-apoptotic by leaving BCL-2 free to inhibit BAX-triggered apoptosis.
(§2) Small Molecular Inhibitors and in vitro & ex vivo Treatment. […] The dose of 80 nM for the four TKIs was selected based on their dose-dependent cytotoxicity in previous reports. […] Both GILT and QUIZ were reported to start to suppress the tumorigenic clustering and c-Kit at the dose of 80 nM. […] The combination of 5 μM 5-Azacitidine (AZA) and 80 nM 1α,25-Dihydroxyvitamin D3 (VD3) was added to the experimental group similar to the previous report. As combination agents to treat blasts in vitro, one dose of 80 nM GILT with one dose of either 100 nM Venetoclax (BCL2 inhibitor), 10 μM (R)-Lisofylline (STAT4 inhibitor), 100 nM AZD1208 (PIM inhibitor), 500 nM PF-06826647 (TYK2 inhibitor), or 500 nM AT9283 (JAK2/3 inhibitor) were added to 1 ml of 1×10^6 cells for each experimental group in 24 well plates. Three days after the one dose treatment, cells were then collected for either analyses by FACS and qPCR, or re-plated into 24 well plates for continued culture. At different time points, re-plated cells were collected for analyses by FACS and qPCR. Medium change was performed every 2-3 days.
Flow Cytometry (FACS). Cells were harvested and examined for the expression of cell surface biomarkers (CD) and intracellular proteins by multichromatic FACS as previously described. About 1×10^4˜10^6 cells in 100 μl FACS buffer (PBS containing 1% FBS and 0.05% sodium azide) were stained with various fluorescence-conjugated antibodies specific for the desired cell surface proteins at 4° C. for 30 min. The surface-stained cells were then fixed and permeabilized using the appropriate reagents (e.g. the BD Pharmingen Cytofix/Cytoperm buffer) and stained with different fluorescence-conjugated antibodies specific for the desired intracellular proteins at 4° C. for 2 hours in the permeabilizing buffer (e.g. the BD Perm/Wash buffer). Concentrations of the Abs were used per the manufacturers' recommendations. Finally, the cells were washed twice in the permeabilizing buffer and twice in the FACS buffer before being analyzed on the BD FACSAria II. Data was analyzed using the FlowJo software (Tree Star Inc., Ashland, OR).

MV4-11 cells [2] = assay: qPCR analyses of gene expression changes in TKI-treated MV4-11
Description: MV4-11 cells (3 days after TKI treatment) were harvested and analyzed by reverse transcription quantitative polymerase chain reaction (qPCR). The qPCR data of four genetic aspects including cell death, kinases specialized in phosphorylation of BAD, JAK/STAT signaling pathway, and intrinsic inhibitory pathways were compared. […] Next, to investigate which kinases are responsible for the phosphorylation of BAD (pBAD) after TKI treatment, screenings of those kinase candidates reported to phosphorylate BAD under physiological conditions were conducted. […] Elevated gene expressions of both PIM2 and PIM3 have been found in adult AML patients associated with poor survival.
as §2
RNA Isolation and Real-Time Polymerase Chain Reaction (qPCR) analysis. MV4-11 and MOLM-14 cells were cultured with the presence of TKI drugs for 72 hours or re-plated 28 days after the treatment of TKI drugs. Cells were isolated for RNA isolation and qPCR analysis as previously described. Total RNA was isolated using the RNeasy Micro Kit (Qiagen) according to the manufacturer's instruction. First-strand cDNA was synthesized using the SuperScript III Reverse Transcriptase (Invitrogen; Life Technologies). With an Applied Biosystems 7900HT Real-Time PCR machine, qPCR was performed and analyzed using known primers for the specific markers. The PCR conditions were 10 minutes at 95° C. followed by 40 cycles of 10 seconds at 95° C. and 15 seconds at 60° C. The relative expression level of a gene was determined using the ΔΔCt method and normalized to GAPDH.

MV4-11 cells [3] = assay: Phase-bright imaging of re-growth of TKI-treated MV4-11
Description: as §1, §2
Imaging Acquisition. Phase-bright images were taken using an Olympus 1X71 inverted microscope and were processed using an Olympus cellSens Dimension 1.15 Imaging Software.

[4] = MV4-11, 10 days after TKI treatment
[5] = MV4-11, 20 days after TKI treatment
[6] = MV4-11, 3 days after TKI treatment, vs control
[7] = MV4-11, 3 days after TKI treatment, vs control non-treatment cells
[8] = MV4-11, 28 days after TKI treatment
[9] = MV4-11, 10 days after TKI treatment, vs non-treatment control
[10] = MV4-11, 28 days after the treatment
[11] = MV4-11, 28 days after the treatment, vs control non-treatment cells

SMILES | population of viable CD44+pBAD+ cells (MV4-11 cells [1]; [4]) [%] | population of viable Ki67+CD33+CD44+ cells (MV4-11 cells [1]; [4]) [%] | population of viable CD44+pBAD+ cells (MV4-11 cells [1]; [5]) [%] | population of viable Ki67+CD33+CD44+ cells (MV4-11 cells [1]; [5]) [%] | BAD mRNA increase (MV4-11 cells [2]; [7]) [fold] | BAX mRNA increase (MV4-11 cells [2]; [7]) [fold] | BCL-2 mRNA increase (MV4-11 cells [2]; [7]) [fold] | JAK2 mRNA increase (MV4-11 cells [2]; [7]) [fold] | PIAS2 mRNA increase (MV4-11 cells [2]; [7]) | PIM2 mRNA increase (MV4-11 cells [2]; [7]) [fold] | PIM3 mRNA increase (MV4-11 cells [2]; [7]) [fold] | SHP1 mRNA increase (MV4-11 cells [2]; [7]) | SHP2 mRNA increase (MV4-11 cells [2]; [7]) [fold] | SOCS1 mRNA increase (MV4-11 cells [2]; [7]) [fold] | SOCS3 mRNA increase (MV4-11 cells [2]; [7]) [fold] | STAT2 mRNA increase (MV4-11 cells [2]; [7]) [fold] | STAT4 mRNA increase (MV4-11 cells [2]; [7]) [fold] | TYK2 mRNA increase (MV4-11 cells [2]; [7]) [fold] | further results
CCc1nc(C(N)=O)c(Nc2ccc(N3CCC(N4CCN(C)CC4)CC3)c(OC)c2)nc1NC1CCOCC1 [GILT, Gilteritinib] | 28.7 | 17.4 | 1.1 | 1.27 | 23 | 68 | 49 | 6 | about 2 fold | 203 | 134 | about 4 fold | 9 | 153 | 182 | 9 | 23 | 71 | NFκB2 mRNA increase (MV4-11 cells [2]; MV4-11, 80 nM TKI, vs non-treated control): 110 fold; CXCR2 mRNA increase (MV4-11 cells [2]; MV4-11, 3 days after TKI treatment): 109 fold; AKT1 mRNA increase (MV4-11 cells [2]; [6]): 10 fold; PRKACA mRNA increase (MV4-11 cells [2]; [6]): 15 fold; STAT3 mRNA increase (MV4-11 cells [2]; [7]): 2 fold; STAT5A mRNA increase (MV4-11 cells [2]; [7]): 4 fold; CXCR1 mRNA increase (MV4-11 cells [2]; MV4-11, 3 days after TKI treatment, data not shown): about 90 fold
CC(C)(C)c1cc(NC(=O)Nc2ccc(-c3cn4c(n3)sc3cc(OCCN5CCOCC5)ccc34)cc2)no1 [QUIZ, Quizartinib] | 93.1 | 68.2 | 20.7 | 52.8 | 16 | 44 | 31 | 6 | about 2 fold | 120 | 81 | about 3 fold | 5 | 88 | 120 | 6 | 19 | 46 | population of viable CD44+pBAD+ cells (MV4-11 cells [1]; [8]): 0.24%; population of viable Ki67+CD33+CD44+ cells (MV4-11 cells [1]; [8]): 1.58%; re-growth / tumorigenic clusters of MV4-11 (MV4-11 cells [3]; 10 days after TKI treatment): few newly formed tumorigenic clusters; re-growth / tumorigenic clusters of MV4-11 (MV4-11 cells [3]; 20 days after TKI treatment): many tumorigenic clusters; re-growth / relapse of MV4-11 (MV4-11 cells [3]; 28 days after TKI treatment): grew confluent without tumorigenic clusters; PIM1 mRNA decrease (MV4-11 cells [2]; [7]): 0.5 fold; PIAS2 mRNA increase (MV4-11 cells [2]; [9]): 570 fold; PIM2 mRNA increase (MV4-11 cells [2]; [9]): 355 fold; PIM3 mRNA increase (MV4-11 cells [2]; [9]): 494 fold; SHP2 mRNA increase (MV4-11 cells [2]; [9]): 9 fold; SOCS1 mRNA increase (MV4-11 cells [2]; [9]): 615 fold; SOCS3 mRNA increase (MV4-11 cells [2]; [9]): 590 fold; STAT2 mRNA increase (MV4-11 cells [2]; [9]): 14 fold; STAT4 mRNA increase (MV4-11 cells [2]; [9]): 28 fold; TYK2 mRNA increase (MV4-11 cells [2]; [9]): 73 fold; PIM2 mRNA increase (MV4-11 cells [2]; [10]): about 2 fold; PIM3 mRNA increase (MV4-11 cells [2]; [10]): about 2 fold; CISH mRNA increase (MV4-11 cells [2]; [11]): about 2 fold; SOCS1 mRNA increase (MV4-11 cells [2]; [11]): ~4 fold; SOCS3 mRNA increase (MV4-11 cells [2]; [11]): about 2 fold
